Data from the NIST ThermoML archive (doi:10.1007/s10765-013-1404-4).
Numbers after ± are expanded uncertainties.

Experiments:
[1] = Crystal; DTA
[2] = Molar enthalpy of transition or fusion; conditions: Crystal; DSC

SMILES | Normal melting temperature [1] [°C] | Molar enthalpy of transition or fusion [2] [kcal/mol]
CCN(C(=O)N(CC)c1ccccc1)c1ccccc1 [1,3-diethyl-1,3-diphenylurea] | 71.87 ± 0.41 | 8.02 ± 0.454
CCN(N=O)c1ccc([N+](=O)[O-])cc1 [N-nitroso-N-ethyl-4-nitroaniline] | 118.60 ± 0.41 | 7.45 ± 0.454
c1ccc(Nc2ccccc2)cc1 [diphenylamine] | 53.50 ± 0.41 | 4.7 ± 0.454

Now from value to compound:

Normal melting temperature [1] [°C] | Molar enthalpy of transition or fusion [2] [kcal/mol] | SMILES
74.79 ± 0.41 | 6.25 ± 0.454 | O=[N+]([O-])c1ccccc1Nc1ccccc1 [2-nitrodiphenylamine]
172.30 ± 0.41 | 4.39 ± 0.454 | O=[N+]([O-])c1ccccc1Nc1ccccc1[N+](=O)[O-] [bis(2-nitrophenyl)amine]
